From patent publication US20100291592A1, “NOVEL MARKER FOR SENSITIVITY AGAINST SULFONAMIDE COMPOUND” (priority 2006, published 2010)

Key:
[1] = tested on: human non-small cell lung cancer cell line (PC9); experiment: Anti-tumor effect on subcutaneous transplant model of PC9; type: in vivo, nude mouse; conditions: PC9 subcutaneous transplant, 50, 100 or 200 mg/kg orally twice a day for 14 days
Procedure: (§1) Human non-small-cell lung cancer cell line PC9 (obtained from Immuno-Biological laboratories Co., Ltd.), human non-small-cell lung cancer cell line A549 (obtained from Dainippon Pharmaceutical), human colon cancer cell line WiDr (obtained from Dainippon Pharmaceutical) and human colon cancer cell line HCT116 (obtained from ATCC) were cultured in RPMI1640 (containing 10% FBS) in a 5% carbon dioxide incubator at 37° C. to about 80% confluence, and the cells were collected with trypsin-EDTA. Using a phosphate buffer for PC9, WiDr and HCT116 and a 50% matrigel-containing phosphate buffer for A549, 5×10^7 cells/mL suspensions were prepared, respectively. Then, 0.1 mL each of the resulting cell suspensions was subcutaneously transplanted to the side of a nude mouse.
(§2) For PC9, 8 days after the transplantation, E7820 was orally administered for 50 mg/kg, 100 mg/kg or 200 mg/kg twice a day for 14 days. For A549, 24 days after the transplantation, E7820 was orally administered for 50 mg/kg or 200 mg/kg twice a day for 7 days. For WiDr, 11 days after the transplantation, E7820 was orally administered for 50 mg/kg, 100 mg/kg or 200 mg/kg twice a day for 14 days. […]
(§3) The major and minor axes of tumors were measured with Digimatic caliper (Mitsutoyo), and tumor volumes and relative tumor volumes were calculated according to the following formulae. […]

[2] = tested on: human non-small cell lung cancer cell line (A549); experiment: Anti-tumor effect on subcutaneous transplant model of A549; type: in vivo, nude mouse; conditions: 50 or 200 mg/kg orally twice a day for 7 days
Procedure: as §1, §2, §3

[3] = tested on: human colon cancer cell line (WiDr); experiment: Anti-tumor effect on subcutaneous transplant model of WiDr; type: in vivo, nude mouse; conditions: WiDr subcutaneous transplant, 50, 100 or 200 mg/kg orally twice a day for 14 days
Procedure: as §1, §2, §3

EGFR1 [4] = experiment: EGFR1 expression and phosphorylation level in PC9 subcutaneous transplant model (western blotting); type: in vivo, nude mouse; conditions: for Phosphorylation level of EGFR1 (% of control) / EGFR1 expression level (% of control): PC9 tumor in nude mouse; for Phosphorylation level of EGFR1 (% of control): anti-EGFR pY1068 western blotting
Procedure: PC9 was cultured in RPMI1640 (containing 10% FBS) in a 5% carbon dioxide incubator to about 80% confluence. The cells were collected with trypsin-EDTA according to a routine procedure and 5×10^7 cells/mL suspension was prepared with a phosphate buffer. Then, 0.1 mL each of the resulting suspension was subcutaneously transplanted to the side of a nude mouse. Eight days after the transplantation, E7820 was orally administered for 50 mg/kg or 200 mg/kg twice a day for a week. One week after the start of sadministration, tumors were removed to prepare tumor cell lysates with various protease inhibitors and a cell lysis solution containing 10% glycerol and 1% Triton X-100 in ice. For each tumor cell lysate, an equal amount of protein was fractionated by SDS-PAGE and transferred onto a nitrocellulose membrane (Hybond ECL, Amersham Biosciences). Then, western blotting was performed by using an anti-EGFR1 antibody (Santa Cruz Biotechnology) or an anti-EGFR pY1068 antibody (anti-phosphorylated-EGFR1 antibody) (Cell Signaling) and horse radish peroxidase-labeled anti-mouse IgG antibody (secondary antibody) (Cell Signaling) according to a routine procedure.
(§4) Detection and quantification of each band were carried out as follows. First, each band was forced to chemically develop a color with Chemiluminescent Substrate (PIERCE), which was then captured as a digital image with Image Master VDS-CL (Amersham Pharmacia Biotech, Tokyo). The digital images were saved as TIF files and each band was numerically converted with Image Master total Lab (version 1.00, Amersham Pharmacia Biotech, Tokyo).

EGFR1 [5] = experiment: EGFR1 expression level in WiDr subcutaneous transplant model (western blotting); type: in vivo, nude mouse; conditions: for EGFR1 expression level (% of control) WiDr: WiDr tumor in nude mouse
Procedure: HCT116 or WiDr was cultured in RPMI1640 (containing 10% FBS) in a 5% carbon dioxide incubator to about 80% confluence. The cells were collected with trypsin-EDTA according to a routine procedure and 5×10^7 cells/mL suspensions were prepared with a phosphate buffer. Then, 0.1 mL each of the resulting suspension was subcutaneously transplanted to the side of a nude mouse.
For HCT116, 23 days after the transplantation, E7820 was orally administered for 12.5 mg/kg, 50 mg/kg or 200 mg/kg twice a day for 3 days. On the other hand, for WiDr, 18 days after the transplantation, E7820 was orally administered for 50 mg/kg or 200 mg/kg twice a day for 7 days. Four days after the start of administration for HCT116 and 8 days after the start of administration for WiDr, tumors were removed to prepare tumor cell lysates with various protease inhibitors and a cell lysis solution containing 10% glycerol and 1% Triton X-100 in ice. For each tumor cell lysate, an equal amount of protein was fractionated by SDS-PAGE and transferred onto a nitrocellulose membrane (Hybond ECL, Amersham Biosciences). Then, western blotting was performed by using an anti-EGFR1 antibody (Santa Cruz Biotechnology) and horse radish peroxidase-labeled anti-mouse IgG antibody (secondary antibody) (Cell Signaling) according to a routine procedure.
as §4, with “and” for “and each band was”

[6] = tested on: cancer cell line resistant to E7070; conditions: WO2006/030941 and WO2006/030947; cited from earlier work
[7] = PC9 transplanted tumors, dose-dependent, western blotting

Structure (SMILES): Cc1ccc(NS(=O)(=O)c2cccc(C#N)c2)c2[nH]cc(C#N)c12 [E7820, N-(3-cyano-4-methyl-1H-indole-7-yl)-3-cyanobenzenesulfonamide]
- Anti-tumor effect (relative tumor volume) [1]: stronger anti-tumor effects
- Anti-tumor effect (relative tumor volume) [2]: showed anti-tumor effects
- Anti-tumor effect (relative tumor volume) [3]: showed anti-tumor effects
- Effect on EGFR1 expression level (in words) (EGFR1 [4]; [7]): decreased the EGFR1 expression level
- Effect on phosphorylation of EGFR1 (in words) (EGFR1 [4]; [7]): inhibited phosphorylation of EGFR1
- Phosphorylation level of EGFR1 (% of control) (EGFR1 [4]; 50 mg/kg orally twice a day for a week): 59 % of control
- EGFR1 expression level (% of control) (EGFR1 [4]; 50 mg/kg orally twice a day for a week, western blotting): 63 % of control
- Phosphorylation level of EGFR1 (% of control) (EGFR1 [4]; 200 mg/kg orally twice a day for a week): 51 % of control
- EGFR1 expression level (% of control) (EGFR1 [4]; 200 mg/kg orally twice a day for a week, western blotting): 40 % of control
- Effect on EGFR1 expression level (in words) (EGFR1 [5]; WiDr transplanted tumors): did not change the EGFR1 expression level
- EGFR1 expression level (% of control) WiDr (EGFR1 [5]; 50 mg/kg orally twice a day for 7 days): 117 % of control
- EGFR1 expression level (% of control) WiDr (EGFR1 [5]; 200 mg/kg orally twice a day for 7 days): 121 % of control
- Cross-resistance of E7070-resistant cancer cell line (antiproliferative activity) [6]: cross-resistance
